These results are taken from patent US20030144237A1, “Use of inhibition of a gas6 function or of a gas6 receptor for preventing and treating a cardiovascular disease” (priority 2000, published 2003).

One assay concerns Gas6+/+ platelets. The experiment in a line: Platelet ATP release (dense granule secretion), Lumi-aggregometer, Gas6+/+ platelets. It is filed as cell-based, mice. Also on record: unit not given here. The settings on record: mean±SEM of three experiments. As for the experimental part:
(§1) Platelet aggregation and, ATP secretion were measured in an optical Chronolog Lumi-aggregometer (Coulter Electronics Ltd), using 280 μl PRP, adjusted to a concentration of 250,000 platelets/μl with PPP as a diluent. Platelet aggregation was measured as described in example 4. Platelet ATP release was monitored by adding firely luciferase and luciferin to all samples and comparing luminescence created by platelet ATP release to that generated by addition of an ATP standard (Chrono-Lume, Kordia). Aggregation and ATP release in response to collagen (equine collagen from Hormon Chemie), ADP, or the thromboxane A2 mimetic U46619 were studied. Platelet aggregation and ATP secretion in response to thrombin were performed with washed platelets in an optical Chronolog Lumi-aggregometer as described above.

The next assay deals with Gas6−/− platelets. Briefly: Platelet ATP release (dense granule secretion), Lumi-aggregometer, Gas6−/− platelets. The settings on record: mean±SEM of three experiments. The assay is classed as cell-based, mice. Also on record: unit not given here. As to the method:
as §1

Assay [1] concerns Platelets from Gas6+/+ mice. Briefly: Platelet aggregation (turbidimetric, Chronolog aggregometer), Gas6+/+ platelets. It is filed as cell-based. The note with it: for platelet aggregation in response to PMA, A23187 or thrombin: FIG. 2, thrombin with washed platelets; for platelet aggregation in response to agonist (dose dependence): platelet-rich plasma, FIG. 1a-j. As for the experimental part: (§2) Blood was centrifuged at 100 g for 10 minutes, allowing separation of platelet-rich plasma (PRP). Platelet-poor plasma (PPP) was obtained by centrifugation of the remaining blood at 2,000 g for 10 minutes. PRP and PPP were pooled from four Gas6^−/− or Gas6^+/+ mice. Platelet aggregation was measured turbidimetrically in an optical Chronolog aggregometer (model 490, Coulter Electronics Ltd), using 280 μl PRP, adjusted to a concentration of 250,000 platelets/μl with PPP as a diluent. PPP also served as 100% reference for aggregation. Aggregation in response to collagen (equine collagen from Hormon Chemie), ADP or the thromboxane A2 mimetic U46619 was studied.
(§3) Aggregation in response to thrombin was performed with washed platelets. […] Apyrase was added to PRP at a final concentration of 1 u/ml. Platelets were then washed by adding 2 volumes ACD and pelleted by centrifugation at 2,000 g for 10 minutes. Platelet pellet was resuspended in Tyrode's buffer containing 1% BSA and final platelet suspension was adjusted to 200,000 platelets/μl and kept at 37° C. Platelet aggregation was measured with an optical Chronolog aggregometer as described above.

Assay [2] relates to platelets from Gas6−/− mice. The experiment in a line: Platelet aggregation (turbidimetric, Chronolog aggregometer), Gas6−/− platelets. The assay is classed as cell-based. The settings on record: for platelet aggregation in response to PMA, A23187 or thrombin: FIG. 2, thrombin with washed platelets; for irreversible platelet aggregation at higher agonist concentrations: ADP 50 μM, collagen 5-15 μg/ml, U46619 100 μM; for irreversible platelet aggregation at low agonist concentrations: ADP <10 μM, collagen 2 μg/ml, U46619 10 μM, only shape change. As for the experimental part: as §2, §3

The mark [3] stands for this setting: agonist 1 U/ml, washed platelets.
The mark [4] stands for this setting: agonist 100 μM, platelet-rich plasma.
Where [5] appears, read: agonist 10 μg/ml, platelet-rich plasma.
Setting [6] is: agonist 20 μM, platelet-rich plasma.
Where [7] appears, read: agonist 50 μM, platelet-rich plasma.
[8] abbreviates: agonist 8 μM, platelet-rich plasma.

Regarding Thrombin, the ATP release with Gas6+/+ platelets (setting [3]) was found to be 17 ± 1.6; with Gas6−/− platelets (setting [3]), 11 ± 1.2. Moreover, the “platelet aggregation in response to PMA, A23187 or thrombin” value (shortened to “platelet aggregation in response to PMA”) in assay [1] and in assay [2] was “stimulated platelet aggregation comparably in both genotypes” each time.

Turning to `CCCCCCCCCCCCCC(=O)O[C@@H]1[C@@H](C)[C@@]2(O)[C@@H](C=C(CO)C[C@]3(O)C(=O)C(C)=C[C@@H]23)[C@@H]2C(C)(C)[C@]12OC(C)=O` [PMA, phorbol-12-myristyl-13-acetate], the ATP release in the assay with Gas6+/+ platelets (setting [4]) was 2.3 ± 0.4; in the assay with Gas6−/− platelets (setting [4]), 1.9 ± 0.6. Further, the “platelet aggregation in response to PMA” value in assay [1] and in assay [2] was “aggregated normally” in each case.

As for Collagen, the ATP release was determined as 1.8 ± 0.3 in the assay with Gas6+/+ platelets (agonist 1 μg/ml, platelet-rich plasma); 10 ± 1.0 in the assay with Gas6+/+ platelets (setting [5]); 11 ± 0.8 in the assay with Gas6−/− platelets (setting [5]). Further, the “platelet aggregation in response to agonist (dose dependence)” value (“platelet aggregation … (dose dependence)” for short) in assay [1] is “dose-dependently aggregated”. Also, the “irreversible platelet aggregation at higher agonist concentrations” value in assay [2] is reported as “induced irreversible aggregation”. The “irreversible platelet aggregation at low agonist concentrations” value in assay [2] is “failed to irreversibly aggregate”.

On to `CCCCC[C@H](O)/C=C/[C@@H]1[C@@H](C/C=C\CCCC(=O)O)[C@H]2CO[C@@H]1C2` [U46619], for which the ATP release with Gas6+/+ platelets (agonist 10 μM, platelet-rich plasma) is given as 6.5 ± 1.5; with Gas6+/+ platelets (setting [4]), 8.2 ± 2.0; with Gas6−/− platelets (setting [4]) it was 7.6 ± 2.3. In addition, the “platelet aggregation … (dose dependence)” value in assay [1] is recorded as “dose-dependently aggregated”. For the same compound, the “irreversible platelet aggregation at higher agonist concentrations” value in assay [2] is “induced irreversible aggregation”. In addition, in assay [2], the “irreversible platelet aggregation at low agonist concentrations” value is “failed to irreversibly aggregate”.

As to `Nc1ncnc2c1ncn2[C@@H]1O[C@H](COP(=O)(O)OP(=O)(O)O)[C@@H](O)[C@H]1O` [ADP, adenosine 5′-diphosphate], the ATP release in the assay with Gas6+/+ platelets (setting [6]) turned out to be 0.8 ± 0.1; in the assay with Gas6+/+ platelets (setting [7]), 2.6 ± 0.8; in the assay with Gas6−/− platelets (setting [6]) it was 0.2 ± 0.1; in the assay on Gas6−/− platelets (setting [7]) it was 1.3 ± 0.3. In assay [1], the “platelet aggregation … (dose dependence)” value is reported as “dose-dependently aggregated”. The “irreversible platelet aggregation at higher agonist concentrations” value in assay [2] is on record as “induced irreversible aggregation”. Besides, in assay [2], the “irreversible platelet aggregation at low agonist concentrations” value was “failed to irreversibly aggregate”.

On to `CNc1ccc2oc(C[C@H]3O[C@@]4(CC[C@H]3C)O[C@H]([C@H](C)C(=O)c3ccc[nH]3)[C@H](C)C[C@H]4C)nc2c1C(=O)O` [A23187], for which the ATP release in the assay on Gas6+/+ platelets (setting [8]) worked out at 9.2 ± 3.1; with Gas6−/− platelets (setting [8]), 7.3 ± 3.0. Further, the “platelet aggregation in response to PMA” value in assay [1] and in assay [2] was “aggregated normally” throughout.
